{"source": "patent US9006174B2", "about": "(priority 2009, dated 2015)", "note": "Ends that are not written are not given here.", "data": [{"test_system": "hRBCs", "details": "human erythrocytes, 1 h at 37° C.", "values": [{"sequence": "RFGRFLRKIRRFRGKVTITIQGSARF [CMAP26 (P14→G)]", "Toxicity Haemolysis (hRBCs)": "− (<25% dead cells)"}, {"sequence": "RFGRFLRKIRRFRLKVTITIQGSARF [CMAP26 (P14→L)]", "Toxicity Haemolysis (hRBCs)": "− (<25% dead cells)"}, {"sequence": "RFGRFLRKIRRLRPK [CMAP(1-15) (F12→L), RFGRFLRKIRRLRPK]", "Toxicity Haemolysis (hRBCs)": "− (<25% dead cells)"}, {"sequence": "RFGRFLRKIRRWRPK [CMAP(1-15) (F12→W), RFGRFLRKIRRWRPK]", "Toxicity Haemolysis (hRBCs)": "−− (<5% dead cells)"}]}]}
